In US20260022142A1, “MACROCYCLIC IMMUNOMODULATORS” (Bristol-Myers Squibb Company, priority 2022, published 2026):
Bridge positions count the residues as written; N and C are the ends. Square brackets hold non-standard residues; d marks the D form. Peptide text beside a SMILES is read from it. * marks the point of attachment. Phe(4-CONH2) = NC(=O)c1ccc(C[C@H](N)C(=O)O)cc1; Bip = N[C@@H](Cc1ccc(-c2ccccc2)cc1)C(=O)O; Phe(3-Me) = Cc1cccc(C[C@H](N)C(=O)O)c1; His(τ-Me) = Cn1cnc(C[C@H](N)C(=O)O)c1; His(π-Me) = Cn1cncc1C[C@H](N)C(=O)O; Val(3-OH) = CC(C)(O)[C@H](N)C(=O)O; Val(3-F) = CC(C)(F)[C@H](N)C(=O)O; 3Pal = N[C@@H](Cc1cccnc1)C(=O)O; 4Pal = N[C@@H](Cc1ccncc1)C(=O)O; Cha = N[C@@H](CC1CCCCC1)C(=O)O; Cit = NC(=O)NCCC[C@H](N)C(=O)O; Carboxymethyl = O=C(O)C*; Orn = NCCC[C@H](N)C(=O)O; Aun = NCCCCCCCCCCC(=O)O; Dab = NCC[C@H](N)C(=O)O; Dap = NC[C@H](N)C(=O)O; Piv = CC(C)(C)C(=O)*

Molecular target: T1, PD-1/PD-L1 interaction (PE-labeled human PD-L1-Ig binding to Jurkat cell line over-expressing human PD-1) (Homo sapiens, UniProt Q15116)
T1 construct: expressed in transfected cells; host or cells: Jurkat
Test: Jurkat-PD-1 Cell Binding High-Content Screening Assay (CBA)
Type: cell-based
Details: Jurkat cell line over-expressing human PD-1; PE-labeled PD-L1-Ig 20 nM final; read-out: Jurkat hPD1-PDL1 IC50
Method in brief: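 Human PD-L1-Ig carrying a covalent PE label on its Ig tag serves as the probe, applied at 20 nM final to compound-treated (2 h, 37° C) Jurkat-hPD-1 cells in medium with 10% fetal calf serum. After one hour, fixation and nuclear staining precede high-content image analysis.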

T1 sequence (Q15116 25-288): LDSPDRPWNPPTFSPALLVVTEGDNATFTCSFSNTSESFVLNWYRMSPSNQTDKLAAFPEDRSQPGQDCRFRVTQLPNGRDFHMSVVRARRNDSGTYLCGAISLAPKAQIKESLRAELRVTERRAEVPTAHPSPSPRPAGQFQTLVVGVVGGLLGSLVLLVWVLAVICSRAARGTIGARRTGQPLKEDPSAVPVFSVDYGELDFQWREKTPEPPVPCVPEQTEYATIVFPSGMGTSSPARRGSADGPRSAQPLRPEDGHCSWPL

Row | SMILES | IC50
1 | Cc1cccc(C[C@@H]2NC(=O)[C@H](CC(=O)O)NC(=O)[C@H](Cc3ccc(OCC(=O)O)cc3)NC(=O)[C@H](Cc3cncn3C)NC(=O)CSC[C@@H](C(=O)N[C@@H](CCN)C(=O)NCCCCCCCCCCC(=O)O)NC(=O)[C@H]([C@@H](C)O)NC(=O)[C@H](C(C)C)NC(=O)[C@H](CC3CCCCC3)NC(=O)[C@H](CCN)NC(=O)[C@@H](CC(C)C)NC(=O)[C@H](CCCN)NC(=O)[C@H](Cc3ccc(OCC(=O)O)cc3)NC(=O)[C@H](Cc3ccc(-c4ccccc4)cc3)NC(=O)[C@H](Cc3ccc(OCC(=O)O)cc3)NC2=O)c1 [Compound 2148] ({CH2CO}-[His(π-Me)]Y(Carboxymethyl)D[Phe(3-Me)]Y(Carboxymethyl)[Bip]Y(Carboxymethyl)[Orn][dL][Dab][Cha]VTC[Dab][Aun]-OH; thioether N-14) | 25.4 nM
2 | Cc1cccc(C[C@@H]2NC(=O)[C@H](CC(=O)O)NC(=O)[C@H](Cc3ccc(OCC(=O)O)cc3)NC(=O)[C@H](Cc3cccnc3)NC(=O)CSC[C@@H](C(=O)N[C@@H](CCN)C(=O)NCCCCCCCCCCC(=O)O)NC(=O)[C@H](CO)NC(=O)[C@H](C(C)C)NC(=O)[C@H](CC3CCCCC3)NC(=O)[C@H](CCN)NC(=O)[C@@H](CC(C)C)NC(=O)[C@H](CCCN)NC(=O)[C@H](Cc3ccc(OCC(=O)O)cc3)NC(=O)[C@H](Cc3ccc(-c4ccccc4)cc3)NC(=O)[C@H](C(C)(C)O)NC2=O)c1 [Compound 2149] ({CH2CO}-[3Pal]Y(Carboxymethyl)D[Phe(3-Me)][Val(3-OH)][Bip]Y(Carboxymethyl)[Orn][dL][Dab][Cha]VSC[Dab][Aun]-OH; thioether N-14) | 55.1 nM
3 | Cc1cccc(C[C@@H]2NC(=O)[C@H](CC(=O)O)NC(=O)[C@H](Cc3ccc(OCC(=O)O)cc3)NC(=O)[C@H](Cc3cn(C)cn3)NC(=O)CSC[C@@H](C(=O)N[C@@H](CCN)C(=O)NCCCCCCCCCCC(=O)O)NC(=O)[C@H](CO)NC(=O)[C@H](C(C)C)NC(=O)[C@H](CC3CCCCC3)NC(=O)[C@H](CCN)NC(=O)[C@@H](CC(C)C)NC(=O)[C@H](CCCN)NC(=O)[C@H](Cc3ccc(OCC(=O)O)cc3)NC(=O)[C@H](Cc3ccc(-c4ccccc4)cc3)NC(=O)[C@H](C(C)(C)O)NC2=O)c1 [Compound 2150] ({CH2CO}-[His(τ-Me)]Y(Carboxymethyl)D[Phe(3-Me)][Val(3-OH)][Bip]Y(Carboxymethyl)[Orn][dL][Dab][Cha]VSC[Dab][Aun]-OH; thioether N-14) | 565 nM
4 | Cc1cccc(C[C@@H]2NC(=O)[C@H](CC(=O)O)NC(=O)[C@H](Cc3ccc(OCC(=O)O)cc3)NC(=O)[C@H](Cc3ccncc3)NC(=O)CSC[C@@H](C(=O)N[C@@H](CCN)C(=O)NCCCCCCCCCCC(=O)O)NC(=O)[C@H]([C@@H](C)O)NC(=O)[C@H](C(C)C)NC(=O)[C@H](CC3CCCCC3)NC(=O)[C@H](CCN)NC(=O)[C@@H](CC(C)C)NC(=O)[C@H](CCCN)NC(=O)[C@H](Cc3ccc(OCC(=O)O)cc3)NC(=O)[C@H](Cc3ccc(-c4ccccc4)cc3)NC(=O)[C@H](C(C)(C)O)NC2=O)c1 [Compound 2151] ({CH2CO}-[4Pal]Y(Carboxymethyl)D[Phe(3-Me)][Val(3-OH)][Bip]Y(Carboxymethyl)[Orn][dL][Dab][Cha]VTC[Dab][Aun]-OH; thioether N-14) | 40.6 nM
5 | Cc1cccc(C[C@@H]2NC(=O)[C@H](CC(=O)O)NC(=O)[C@H](Cc3ccc(OCC(=O)O)cc3)NC(=O)[C@H](Cc3cncn3C)NC(=O)CSC[C@@H](C(=O)N[C@@H](CCN)C(=O)NCCCCCCCCCCC(=O)O)NC(=O)[C@H]([C@@H](C)O)NC(=O)[C@H](C(C)C)NC(=O)[C@H](CC3CCCCC3)NC(=O)[C@H](CCN)NC(=O)[C@@H](CC(C)C)NC(=O)[C@H](CCCN)NC(=O)[C@H](Cc3ccc(OCC(=O)O)cc3)NC(=O)[C@H](Cc3ccc(-c4ccccc4)cc3)NC(=O)[C@H](C(C)(C)O)NC2=O)c1 [Compound 2152] ({CH2CO}-[His(π-Me)]Y(Carboxymethyl)D[Phe(3-Me)][Val(3-OH)][Bip]Y(Carboxymethyl)[Orn][dL][Dab][Cha]VTC[Dab][Aun]-OH; thioether N-14) | 73.6 nM
6 | Cc1cccc(C[C@@H]2NC(=O)[C@H](CC(=O)O)NC(=O)[C@H](Cc3ccc(OCC(=O)O)cc3)NC(=O)[C@H](CN)NC(=O)CSC[C@@H](C(=O)N[C@@H](CCN)C(=O)NCCCCCCCCCCC(=O)O)NC(=O)[C@H]([C@@H](C)O)NC(=O)[C@H](C(C)(C)O)NC(=O)[C@H](CC3CCCCC3)NC(=O)[C@H](CCN)NC(=O)[C@@H](CC(C)C)NC(=O)[C@H](CCCN)NC(=O)[C@H](CCCNC(N)=O)NC(=O)[C@H](Cc3ccc(-c4ccccc4)cc3)NC(=O)[C@H](C(C)C)NC2=O)c1 [Compound 2153] ({CH2CO}-[Dap]Y(Carboxymethyl)D[Phe(3-Me)]V[Bip][Cit][Orn][dL][Dab][Cha][Val(3-OH)]TC[Dab][Aun]-OH; thioether N-14) | 23.4 nM
7 | Cc1cccc(C[C@@H]2NC(=O)[C@H](CC(=O)O)NC(=O)[C@H](Cc3ccc(OCC(=O)O)cc3)NC(=O)[C@H](Cc3ccc(C(N)=O)cc3)NC(=O)CSC[C@@H](C(=O)N[C@@H](CCN)C(=O)NCCCCCCCCCCC(=O)O)NC(=O)[C@H](CCC(N)=O)NC(=O)[C@H](C(C)(C)O)NC(=O)[C@H](CC3CCCCC3)NC(=O)[C@H](CCN)NC(=O)[C@@H](CC(C)C)NC(=O)[C@H](CCCN)NC(=O)[C@H](Cc3ccc(OCC(=O)O)cc3)NC(=O)[C@H](Cc3ccc(-c4ccccc4)cc3)NC(=O)[C@H](Cc3ccc(OCC(=O)O)cc3)NC2=O)c1 [Compound 2154] ({CH2CO}-[Phe(4-CONH2)]Y(Carboxymethyl)D[Phe(3-Me)]Y(Carboxymethyl)[Bip]Y(Carboxymethyl)[Orn][dL][Dab][Cha][Val(3-OH)]QC[Dab][Aun]-OH; thioether N-14) | 9.2 nM
8 | Cc1cccc(C[C@@H]2NC(=O)[C@H](CC(=O)O)NC(=O)[C@H](Cc3ccc(OCC(=O)O)cc3)NC(=O)[C@H](Cc3cn(C)cn3)NC(=O)CSC[C@@H](C(=O)N[C@@H](CCN)C(=O)NCCCCCCCCCCC(=O)O)NC(=O)[C@H](CCC(N)=O)NC(=O)[C@H](C(C)(C)O)NC(=O)[C@H](CC3CCCCC3)NC(=O)[C@H](CCN)NC(=O)[C@@H](CC(C)C)NC(=O)[C@H](CCCN)NC(=O)[C@H](Cc3ccc(OCC(=O)O)cc3)NC(=O)[C@H](Cc3ccc(-c4ccccc4)cc3)NC(=O)[C@H](Cc3ccc(OCC(=O)O)cc3)NC2=O)c1 [Compound 2155] ({CH2CO}-[His(τ-Me)]Y(Carboxymethyl)D[Phe(3-Me)]Y(Carboxymethyl)[Bip]Y(Carboxymethyl)[Orn][dL][Dab][Cha][Val(3-OH)]QC[Dab][Aun]-OH; thioether N-14) | 19.4 nM
9 | Cc1cccc(C[C@@H]2NC(=O)[C@H](CC(=O)O)NC(=O)[C@H](Cc3ccc(OCC(=O)O)cc3)NC(=O)[C@H](CCNC(=O)C(C)(C)C)NC(=O)CSC[C@@H](C(=O)N[C@@H](CCN)C(=O)NCCCCCCCCCCC(=O)O)NC(=O)[C@H](CCC(N)=O)NC(=O)[C@H](C(C)(C)F)NC(=O)[C@H](CC3CCCCC3)NC(=O)[C@H](CCN)NC(=O)[C@@H](CC(C)C)NC(=O)[C@H](CCCN)NC(=O)[C@H](Cc3ccc(OCC(=O)O)cc3)NC(=O)[C@H](Cc3ccc(-c4ccccc4)cc3)NC(=O)[C@H](Cc3ccc(OCC(=O)O)cc3)NC2=O)c1 [Compound 2156] ({CH2CO}-[Dab](Piv)Y(Carboxymethyl)D[Phe(3-Me)]Y(Carboxymethyl)[Bip]Y(Carboxymethyl)[Orn][dL][Dab][Cha][Val(3-F)]QC[Dab][Aun]-OH; thioether N-14) | 9.8 nM
10 | Cc1cccc(C[C@@H]2NC(=O)[C@H](CC(=O)O)NC(=O)[C@H](Cc3ccc(OCC(=O)O)cc3)NC(=O)[C@H](CCCNC(=N)N)NC(=O)CSC[C@@H](C(=O)N[C@@H](CCN)C(=O)NCCCCCCCCCCC(=O)O)NC(=O)[C@H]([C@@H](C)O)NC(=O)[C@H](C(C)C)NC(=O)[C@H](CC3CCCCC3)NC(=O)[C@H](CCN)NC(=O)[C@@H](CC(C)C)NC(=O)[C@H](CCCN)NC(=O)[C@H](Cc3ccc(OCC(=O)O)cc3)NC(=O)[C@H](Cc3ccc(-c4ccccc4)cc3)NC(=O)[C@H](Cc3ccc(OCC(=O)O)cc3)NC2=O)c1 [Compound 2157] ({CH2CO}-RY(Carboxymethyl)D[Phe(3-Me)]Y(Carboxymethyl)[Bip]Y(Carboxymethyl)[Orn][dL][Dab][Cha]VTC[Dab][Aun]-OH; thioether N-14) | 97.8 nM
11 | Cc1cccc(C[C@@H]2NC(=O)[C@H](CC(=O)O)NC(=O)[C@H](Cc3ccc(OCC(=O)O)cc3)NC(=O)[C@H](CN)NC(=O)CN[C@@H](C(=O)N[C@@H](CCN)C(=O)NCCCCCCCCCCC(=O)O)CNC(=O)[C@H]([C@@H](C)O)NC(=O)[C@H](C(C)C)NC(=O)[C@H](CC3CCCCC3)NC(=O)[C@H](CCN)NC(=O)[C@@H](CC(C)C)NC(=O)[C@H](CCCN)NC(=O)[C@H](CCCNC(N)=O)NC(=O)[C@H](Cc3ccc(-c4ccccc4)cc3)NC(=O)[C@H](C(C)C)NC2=O)c1 [Compound 2158] | 129 nM
12 | Cc1cccc(C[C@@H]2NC(=O)[C@H](CC(=O)O)NC(=O)[C@H](Cc3ccc(OCC(=O)O)cc3)NC(=O)[C@H](CCCNC(=N)N)NC(=O)CN(C)C[C@@H](C(=O)N[C@@H](CCN)C(=O)NCCCCCCCCCCC(=O)O)NC(=O)[C@H]([C@@H](C)O)NC(=O)[C@H](C(C)C)NC(=O)[C@H](CC3CCCCC3)NC(=O)[C@H](CCN)NC(=O)[C@@H](CC(C)C)NC(=O)[C@H](CCCN)NC(=O)[C@H](Cc3ccc(OCC(=O)O)cc3)NC(=O)[C@H](Cc3ccc(-c4ccccc4)cc3)NC(=O)[C@H](Cc3ccc(OCC(=O)O)cc3)NC2=O)c1 [Compound 2159] | 96.1 nM
13 | Cc1cccc(C[C@@H]2NC(=O)[C@H](CC(=O)O)NC(=O)[C@H](Cc3ccc(OCC(=O)O)cc3)NC(=O)[C@H](CN)NC(=O)CNC[C@@H](C(=O)N[C@@H](CCN)C(=O)NCCCCCCCCCCC(=O)O)NC(=O)[C@H]([C@@H](C)O)NC(=O)[C@H](C(C)C)NC(=O)[C@H](CC3CCCCC3)NC(=O)[C@H](CCN)NC(=O)[C@@H](CC(C)C)NC(=O)[C@H](CCCN)NC(=O)[C@H](CCCNC(N)=O)NC(=O)[C@H](Cc3ccc(-c4ccccc4)cc3)NC(=O)[C@H](C(C)C)NC2=O)c1 [Compound 2160] | 42.6 nM
